The values below come from US11518742B2 (priority 2020, dated 2022).

Series [1] can be described thus: Competitive equilibration of Pattern A, B and C forms in solvents. Format: physicochemical. Particulars: suspension in 0.5 ml solvent agitated 24 hours; AB = Pattern A 15 mg + Pattern B 30 mg, AC = Pattern A 15 mg + Pattern C 30 mg; 1 IPA, 2 toluene, 3 iPrOAc, 4 MeCN, 5 MEK, 6 2-MeTHF. How it is done:
Solvent, 0.5 ml, was charged to crystallisation tubes as detailed in the Table below. Suspensions were agitated at 100 rpm at […] for 24 hours. Suspensions were isolated via isolute cartridge and air dried for 5 minutes and characterised by XRPD and DSC.

Series [2] deals with Slugs (Arion lusitanicus). Nature of the series: SMI assay, historical data (30-min / 60-min contact periods). Format: in vivo. Particulars: for Total MP (% body weight): treatment time 60-min; for CP1 30-min, amount of mucus produced / CP2 30-min, amount of mucus produced: Table 4 (Code 00E04); for CP1 30-min, amount of mucus produced / CP2 30-min, amount of mucus produced / Day 1 CP1 60-min, amount of mucus produced / Day 2 CP2 60-min, amount of mucus produced / Total MP / CP1 60-min, amount of mucus produced: historical data; for Day 1 CP1 60-min, amount of mucus produced / Day 2 CP2 60-min, amount of mucus produced: Table 5; for Day 1 CP1 60-min, amount of mucus produced: 1% in CP1; for Day 2 CP2 60-min, amount of mucus produced: 3.5% in CP2; for Ranking of salts by SIB reactions: comparison of 60-min historical data with SIB protocol data; for CP1 60-min, amount of mucus produced: Table 6.

The test system of series [3] is Slugs (Arion lusitanicus). The series is classed as in vivo. An excerpt: The Slug Mucosal Irritation (SMI) assay was initially developed at the Laboratory of Pharmaceutical Technology (UGent) to predict the mucosal irritation potency of pharmaceutical formulations and ingredients. The test utilizes the terrestrial slug Arion lusitanicus. The body wall of the slugs is a mucosal surface composed of different layers.
The outer single-layered columnar epithelium that contains cells with cilia, cells with micro-villi and mucus secreting cells covers the subepithelial connective tissue. Slugs that are placed on an irritating substance will produce mucus. Additionally tissue damage can be induced which results in the release of proteins and enzymes from the mucosal surface. […] A classification prediction model that distinguishes between irritation (mucus production) and tissue damage (release of proteins and enzymes) has been developed. […] A 5% shampoo dilution or artificial tears were instilled in the eye and the discomfort was scored by the participants on a 5 point scale during several time points up to 30 min after instillation. The same shampoos were tested in the SMI assay using the Stinging, Itching and Burning (SIB) protocol.
The purpose of this assay was to assess the stinging, itching or burning potential of the test item(s) defined below. Using the objective values obtained for the mucus production the stinging, itching or burning potential of the test item(s) can be estimated by means of the prediction model that is composed of four categories (no, mild, moderate and severe).
Test System: Slugs (Arion lusitanicus); 3 slugs per treatment group. The parental slugs of Arion lusitanicus collected in local gardens along Gent and Aalter (Belgium) are bred in the laboratory in an acclimatized room (18-20° C.). The slugs are housed in plastic containers and fed with lettuce, cucumber, carrots and commercial dog food.
Test Design: A single study was performed.
Slugs weighing between 3 and 6 g were isolated from the cultures two days before the start of an experiment. The body wall was inspected carefully for evidence of macroscopic injuries. […] The slugs were placed in a plastic box lined with paper towel moistened with PBS and were kept at 18-20° C. Daily the body wall of the slugs was wetted with 300 μl PBS using a micropipette.
An overview of this can be seen in FIG. 4.
The mucus production was expressed as % of the body weight.
Based on the endpoint of the SMI assay the stinging, itching or burning potency of the test item(s) was estimated using a classification prediction model.
The evaluation of the test results was based upon the total amount of mucus production during 3 repeated contact periods with the test item.
For each slug, the mucus production was expressed in % of the body weight by dividing the weight of the mucus produced during each contact period by the body weight of the slug before the start of that contact period. The total mucus was calculated for each slug and then the mean per treatment group was calculated. The classification prediction model shown in Table 1 was used to classify the compounds.

The nature of series [4]: Controlled cooling crystallisation: solubility in minimal solvent at 50 °C. The series is classed as physicochemical. As to the method:
(detailed in the Table below). The solutions were clarified through a 0.45 μm Teflon syringe filter into pre-heated crystallisation tubes and cooled from 50° C. to −10° C. over 60 hours (1° C. Hr-1 cooling rate) and held at −10° C. for 50 hours (no agitation).
Solutions were clarified into crystallisation tubes at 50° C. and were cooled to −10° C. at a rate of 10° C.·hr-1, then equilibrated at −10° C. for 12 hours, then agitated at −10° C. at 400 rpm for 30 minutes which afforded a mobile suspension for all samples except Sample I which remained a solution. Further equilibration with agitation at −10° C. at 400 rpm for 3 hours afforded a thin suspension. All samples were isolated via isolute cartridge and air dried for 5 minutes before characterisation.

[5] abbreviates: Concentration 10%, treatment time 45-min (3× 15-min).
Where [6] appears, read: Table 2, stinging, itching and burning.
[7] abbreviates: Table 3, stinging, itching and burning.

Read-outs that look alike come from different tables or passages of the source.

As to `COc1ccc2[nH]cc(CCN(C)C)c2c1.O=C(O)c1ccccc1` [AB3], the “Summary of solid form characterisation, XRPD” value (from here on “Summary … XRPD”) in series [1] is “Pattern A”.
`COc1ccc2[nH]cc(CCN(C)C)c2c1.O=C(O)c1ccccc1` [AB2]: in series [1], the “Summary of solid form characterisation, DSC endotherm” value (shortened to “Summary … DSC endotherm”) was “Endotherm at 122 °C” and the “Summary … XRPD” value is “Pattern C”.
Regarding `O=C([O-])C(=O)[O-].[Na+].[Na+]` [Sodium oxalate], in series [2] (Concentration 1%), the “Total MP (% body weight)” value turned out to be 11.2 % body weight. In addition, in series [2], the “CP1 30-min, amount of mucus produced” value was determined as 4.5 ± 1.3; the “CP2 30-min, amount of mucus produced” value is reported as 6.6 ± 1.0; the “Day 1 CP1 60-min, amount of mucus produced” value amounted to 11.2 ± 3.9; the “Day 2 CP2 60-min, amount of mucus produced” value came to 16.0 ± 4.0. The “Ranking of salts by SIB reactions” value in series [2] is listed as “most irritating salt”.
Consider `O=C([O-])CC(O)(CC(=O)[O-])C(=O)[O-].[Na+].[Na+].[Na+]` [Sodium citrate, 10%, Sodium citrate], for which the “Total MP (% body weight)” value in series [3] (setting [5]) is 12.5 % body weight. Further, the “SIB Category” value in series [3] (setting [6]) and in series [3] (setting [7]) was “Moderate (Moderate: 10% ≤ total MP < 17.5%)” in each case.
Turning to `O=P([O-])(O)O.[Na+]` [Sodium phosphate, 10% monobasic, Sodium phosphate monobasic], the “Total MP (% body weight)” value in series [3] (setting [5]) is given as 15.2 % body weight. The “SIB Category” value in series [3] (setting [6]) and in series [3] (setting [7]) was “Moderate (Moderate: 10% ≤ total MP < 17.5%)” each time.
As for Benzalkonium chloride [PC - 1% BAC], in series [2], the “CP1 30-min, amount of mucus produced” value was determined as 13.2 ± 4.2; the “CP2 30-min, amount of mucus produced” value was 18.6 ± 9.8; the “Day 1 CP1 60-min, amount of mucus produced” value turned out to be 21.9 ± 4.8; the “Day 2 CP2 60-min, amount of mucus produced” value is recorded as 9.7 ± 3.2. Moreover, the “CP1 60-min, amount of mucus produced” value in series [2] is 15.0 ± 1.9. Moreover, the “Total MP” value in series [2] (Table 4, 2 x 30-min contact periods) is 31.8 ± 12.6. For the same compound, in series [2] (Table 5, 2 x 60-min contact periods), the “Total MP” value was found to be 31.6 ± 2.5.
`COc1ccc2[nH]cc(CCN(C)C)c2c1.O=C(O)c1ccccc1` [AB6]: in series [1], the “Summary … DSC endotherm” value is “Endotherm at 124 °C” and the “Summary … XRPD” value is “Pattern A”.
For the compound `COc1ccc2[nH]cc(CCN(C)C)c2c1.O=C(O)c1ccccc1` [AC4], in series [1], the “Summary … DSC endotherm” value is “Endotherm at 124 °C” and the “Summary … XRPD” value is reported as “Pattern A”.
In the case of `CC(=O)[O-].[Na+]` [Sodium acetate, 10%, Sodium acetate], in series [3] (in vivo), the “SIB Category” value is recorded as “Moderate (key: No: total MP < 5.5%; Mild: 5.5% ≤ total MP < 10%; Moderate: 10% ≤ total MP < 17.5%; Severe: total MP ≥ 17.5%)” and the “Total MP (% body weight)” value stood at 11.0 % body weight.
On to `COc1ccc2[nH]cc(CCN(C)C)c2c1.O=C(O)c1ccccc1` [AC2], for which, in series [1], the “Summary … DSC endotherm” value was “Endotherm at 123 °C +” and the “Summary … XRPD” value was “Pattern C”.
In the same order, the values of `COc1ccc2[nH]cc(CCN(C)C)c2c1.O=C(O)c1ccccc1` [AC1] are “Endotherm at 124 °C” and “Pattern A”.
Turning to `COc1ccc2[nH]cc(CCN(C)C)c2c1.O=C(O)c1ccccc1` [5MeODMT benzoate lot 20/20/150FP2], the “Solubility mg · ml^−1 at ° C.” value in series [4] (2-Chlorotoluene, at 80 °C (suspension at 12.5 mg·ml-1 at 50 °C), cryst. tube K) was 12.5 at 80 mg · ml^−1; in series [4] (4-Methyl-2-pentanone, at 50 °C, cryst. tube H, minimal solvent for clear solution), 25 at 50 mg · ml^−1; in series [4] (Cumene, at 80 °C (suspension at 12.5 mg·ml-1 at 50 °C), cryst. tube I) it was 12.5 at 80 mg · ml^−1; in series [4] (Ethyl formate, at 50 °C, cryst. tube E, minimal solvent for clear solution) it was 40 at 50 mg · ml^−1; in series [4] (Iso-Butyl acetate, at 50 °C, cryst. tube D, minimal solvent for clear solution), 12.5 at 50 mg · ml^−1; in series [4] (Iso-Propyl acetate, at 50 °C, cryst. tube C, minimal solvent for clear solution), 16.7 at 50 mg · ml^−1. For the same compound, the “Solubility mg · ml^−1 at ° C.” value in series [4] (Methyl acetate, at 50 °C, cryst. tube A, minimal solvent for clear solution) is given as 33.3 at 50 mg · ml^−1; in series [4] (Methyl benzoate, at 50 °C, cryst. tube F, minimal solvent for clear solution), 50 at 50 mg · ml^−1; in series [4] (Methyl propionate, at 50 °C, cryst. tube G, minimal solvent for clear solution) it was 40 at 50 mg · ml^−1; in series [4] (Toluene, at 80 °C (suspension at 12.5 mg·ml-1 at 50 °C), cryst. tube J) it was 12.5 at 80 mg · ml^−1; in series [4] (n-Propyl acetate, at 50 °C, cryst. tube B, minimal solvent for clear solution), 20 at 50 mg · ml^−1; in series [4] (α,α,α-Trifluorotoluene, at 80 °C (suspension at 12.5 mg·ml-1 at 50 °C), cryst. tube L), 12.5 at 80 mg · ml^−1.
In the case of `COc1ccc2[nH]cc(CCN(C)C)c2c1.O=C(O)c1ccccc1` [AB4], in series [1], the “Summary … DSC endotherm” value was “Endotherm at 124 °C” and the “Summary … XRPD” value is on record as “Pattern A”.
In the same order, the values of `COc1ccc2[nH]cc(CCN(C)C)c2c1.O=C(O)c1ccccc1` [AB5] are “Endotherm at 124 °C” and “Pattern A”.
In the case of `O=C([O-])c1ccccc1.[Na+]` [Sodium benzoate], the “Total MP (% body weight)” value came to 2.6 % body weight in series [2] (Concentration 1%) and 6.9 % body weight in series [2] (Concentration 10%). The “CP1 60-min, amount of mucus produced” value in series [2] (listed as Sodium benzoate (1%)) came out at 2.6 ± 0.3; in series [2] (listed as Sodium benzoate (10%)) it was 6.9 ± 1.2. Moreover, the “Ranking of salts by SIB reactions” value in series [2] was “least irritating salt”.
As for `COc1ccc2[nH]cc(CCN(C)C)c2c1.O=C(O)c1ccccc1` [AB1], in series [1], the “Summary … DSC endotherm” value was “Endotherm at 124 °C” and the “Summary … XRPD” value was “Pattern A”.
As for `O=C([O-])/C=C/C(=O)[O-].[Na+].[Na+]` [Disodium fumarate, 10%, Disodium fumarate], the “Total MP (% body weight)” value in series [3] (setting [5]) was 13.3 % body weight. In addition, the “SIB Category” value in series [3] (setting [6]) and in series [3] (setting [7]) was “Moderate (Moderate: 10% ≤ total MP < 17.5%)” each time. The “MP CP1 (%)” value in series [3] (mucus produced, first 15-min contact period, mean ± SD, n = 3) was found to be 5.0 ± 2.5%.
